# From patent US4474766A, “Anti-inflammatory/analgesic combination of cyclo-(N-methyl-Ala-Tyr-D-Trp-Lys-Val-Phe) and a selected non-steroidal anti-inflammatory drug (NSAID)” (Merck & Co., Inc., priority 1983, dated 1984)
# Tested on: NSAID-induced gastric ulcers
# Assay: NSAID-Induced Ulcers in the Sprague-Dawley Rat (gastric ulcer assay)
# Format: in vivo
# Set-up: Inhibition of Gastric Ulcers: unit not given here
# Excerpt: When a selected NSAID, for example, indomethacin, is combined with cyclo-(N-methyl-Ala-Tyr-D-Trp-Lys-Val-Phe) according to the present invention, the following results are obtained from the well-established gastric ulcer assay in the Sprague-Dawley male rat is described below:
# Protocol: NSAID-Induced Ulcers in the Sprague-Dawley Rat
# Twenty-four (24) hour fasted, male, Sprague-Dawley rats, 130 to 150 gms. each, are randomized into groups for assay. The animals are housed to wire-bottom cages without bedding and allowed free-access to water throughout the fasting and experimental periods. Ulcers are then induced by the peroral administration of NSAID at dose levels predetermined to provoke a similar number of ulcers within 4 hours of additional fasting*. Each NSAID is prepared in 0.5% methyl cellulose vehicle and given at a volume of 10 ml/kg rounded to the nearest 0.1 ml. Either 0.5% methylcellulose vehicle or compound A is co-administered perorally with the NSAID bringing the total volume to 20 ml/kg rounded to the nearest 0.2 ml.
# *For example: Indomethacin-20 mg/kg; Naproxen-50 mg/kg; Ibuprofen-100 mg/kg; Diclofenac-75 mg/kg.
# Four (4) hours after the administration of NSAID+vehicle, or NSAID+compound A, the animals are sacrificed by CO2 inhalation, the stomachs removed, excised along the inner curvature, washed carefully with cool tap water and placed in 0.9% saline. When all groups have been processed, the mucosal region of the stomachs are examined under a magnifying lens and scored according to the total number of lesions present. Group scores represent the mean score of animals in that group. P values are determined by Student's "t" test, comparing the ulcer scores of individual rats given NSAID+compound A to those dosed with NSAID+vehicle only.
# [1] = Compound A 0.01 mg/kg p.o. co-administered with Diclofenac 75 mg/kg p.o., 4 h
# [2] = Compound A 0.01 mg/kg p.o. co-administered with Ibuprofen 100 mg/kg p.o., 4 h
# [3] = Compound A 0.01 mg/kg p.o. co-administered with Indomethacin 20 mg/kg p.o., 4 h
# [4] = Compound A 0.01 mg/kg p.o. co-administered with Naproxen 50 mg/kg p.o., 4 h
# [5] = Compound A 0.1 mg/kg p.o. co-administered with Diclofenac 75 mg/kg p.o., 4 h
# [6] = Compound A 0.1 mg/kg p.o. co-administered with Ibuprofen 100 mg/kg p.o., 4 h
# [7] = Compound A 0.1 mg/kg p.o. co-administered with Indomethacin 20 mg/kg p.o., 4 h
# [8] = Compound A 0.1 mg/kg p.o. co-administered with Naproxen 50 mg/kg p.o., 4 h
# [9] = Compound A 1.0 mg/kg p.o. co-administered with Diclofenac 75 mg/kg p.o., 4 h
# [10] = Compound A 1.0 mg/kg p.o. co-administered with Ibuprofen 100 mg/kg p.o., 4 h
# [11] = Compound A 1.0 mg/kg p.o. co-administered with Indomethacin 20 mg/kg p.o., 4 h
# [12] = Compound A 1.0 mg/kg p.o. co-administered with Naproxen 50 mg/kg p.o., 4 h
molecule,measurement,setting,value
"O=C(O)Cc1ccccc1Nc1c(Cl)cccc1Cl [Diclofenac, diclofenac, reference compound]",Inhibition of Gastric Ulcers,"Diclofenac 75 mg/kg p.o. + vehicle (control), 4 h",0
same,No. of Gastric Ulcers M ± S.E.M.,"Diclofenac 75 mg/kg p.o. + vehicle (control), fasted male rats, 4 h after dosing",14.0 ± 1.6
"CC(C)Cc1ccc(C(C)C(=O)O)cc1 (stereo not drawn) [Ibuprofen, ibuprofen, reference compound]",Inhibition of Gastric Ulcers,"Ibuprofen 100 mg/kg p.o. + vehicle (control), 4 h",0
"COc1ccc2c(c1)c(CC(=O)O)c(C)n2C(=O)c1ccc(Cl)cc1 [Indomethacin, indomethacin, reference compound]",Inhibition of Gastric Ulcers,"Indomethacin 20 mg/kg p.o. + vehicle (control), 4 h",0
same,No. of Gastric Ulcers M ± S.E.M.,"Indomethacin 20 mg/kg p.o. + vehicle (control), fasted male rats, 4 h after dosing",18.1 ± 1.6
"COc1ccc2cc([C@H](C)C(=O)O)ccc2c1 [Naproxen, naproxen, reference compound]",Inhibition of Gastric Ulcers,"Naproxen 50 mg/kg p.o. + vehicle (control), 4 h",0
cyclo-(N-methyl-Ala-Tyr-D-Trp-Lys-Val-Phe) [Compound A],Inhibition of Gastric Ulcers,[1],0
same,No. of Gastric Ulcers M ± S.E.M.,[1],18.7 ± 2.0
same,Inhibition of Gastric Ulcers,[2],36.4
same,No. of Gastric Ulcers M ± S.E.M.,[2],8.2 ± 1.0
same,Inhibition of Gastric Ulcers,[3],0
same,No. of Gastric Ulcers M ± S.E.M.,[3],18.6 ± 4.4
same,Inhibition of Gastric Ulcers,[4],0
same,No. of Gastric Ulcers M ± S.E.M.,[4],14.0 ± 3.0
same,Inhibition of Gastric Ulcers,[5],47.9
same,No. of Gastric Ulcers M ± S.E.M.,[5],7.3 ± 2.3
same,Inhibition of Gastric Ulcers,[6],87.6
same,No. of Gastric Ulcers M ± S.E.M.,[6],1.6 ± 0.6
same,Inhibition of Gastric Ulcers,[7],50.3
same,No. of Gastric Ulcers M ± S.E.M.,[7],9.0 ± 1.9
same,Inhibition of Gastric Ulcers,[8],67.7
same,No. of Gastric Ulcers M ± S.E.M.,[8],5.0 ± 2.5
same,Inhibition of Gastric Ulcers,[9],99.3
same,No. of Gastric Ulcers M ± S.E.M.,[9],0.1 ± 0.1
same,Inhibition of Gastric Ulcers,[10],92.3
same,No. of Gastric Ulcers M ± S.E.M.,[10],1.0 ± 0.5
same,Inhibition of Gastric Ulcers,[11],83.4
same,No. of Gastric Ulcers M ± S.E.M.,[11],3.0 ± 1.3
same,Inhibition of Gastric Ulcers,[12],83.9
same,No. of Gastric Ulcers M ± S.E.M.,[12],2.5 ± 1.4
